Measured values taken from patent US12096773B2, “Herbicidal composition” (ISHIHARA SANGYO KAISHA, LTD., priority 2019, dated 2024).

Key:
Assay type in all cases: in vivo
[1] = tested on: dandelion (Taraxacum officinale); assay: Example 4 pot test, foliar treatment, dandelion
Source text: (§1) Upland field soil was put into a 1/1,000,000 hectare pot, and seeds of black nightshade (Solanum nigrum L.), wild oat (Avena fatua L.) and dandelion (Taraxacum officinale) were sown.

[2] = tested on: crabgrass (Digitaria sanguinalis L.); assay: Example 8 pot test, foliar treatment, crabgrass
Source text: (§2) Upland field soil was put into a 1/1,000,000 hectare pot, and seeds of goosegrass (Eleusine indica L.), barnyardgrass (Echinochloa crus-galli L.), giant foxtail (Setaria faberi Herrm.) and crabgrass (Digitaria sanguinalis L.) were sown.

[3] = tested on: yellow nutsedge (Cyperus esculentus L.); assay: Example 5 pot test, foliar treatment, yellow nutsedge; conditions: 22nd day after foliar treatment
Source text: Upland field soil was put into a 1/1,000,000 hectare pot, and tubers of yellow nutsedge (Cyperus esculentus L.) were embedded.

[4] = tested on: horseweed (Conyza canadensis(L.) Cron.); assay: Example 3 pot test, foliar treatment of horseweed, growth inhibition over time; conditions: for growth inhibition effect (in words): used alone, 19th day after the foliar treatment
Source text: (§3) Upland field soil was put into a 1/1,000,000 hectare pot, and seeds of horseweed (Conyza canadensis(L.) Cron.) were sown.

[5] = tested on: horseweed (Conyza canadensis(L.) Cron.); assay: Example 1 pot test, foliar treatment of horseweed, visual growth inhibition; conditions: 21st day after foliar treatment
Source text: as §3

[6] = tested on: redroot pigweed (Amaranthus retroflexus L.); assay: Example 9 pot test, foliar treatment, redroot pigweed
Source text: (§4) Upland field soil was put into a 1/1,000,000 hectare pot, and seeds of redroot pigweed (Amaranthus retroflexus L.), Kochia (Kochia scoparia L.) and Chenopodium album L. var. centrorubrum Makino were sown.

[7] = tested on: giant foxtail (Setaria faberi Herrm.); assay: Example 8 pot test, foliar treatment, giant foxtail
Source text: as §2

[8] = tested on: Chenopodium album L. var. centrorubrum Makino; assay: Example 9 pot test, foliar treatment, Chenopodium album var. centrorubrum
Source text: as §4

[9] = tested on: black nightshade (Solanum nigrum L.); assay: Example 4 pot test, foliar treatment, black nightshade
Source text: as §1

[10] = tested on: common ragweed (Ambrosia elatior L.); assay: Example 6 pot test, foliar treatment, common ragweed
Source text: (§5) Upland field soil was put into a 1/1,000,000 hectare pot, and seeds of common ragweed (Ambrosia elatior L.) and Kochia (Kochia scoparia L.) were sown.

[11] = tested on: Kochia (Kochia scoparia L.); assay: Example 6 pot test, foliar treatment, Kochia
Source text: as §5

[12] = tested on: barnyardgrass (Echinochloa crus-galli L.); assay: Example 8 pot test, foliar treatment, barnyardgrass
Source text: as §2

[13] = tested on: Kochia (Kochia scoparia L.); assay: Example 9 pot test, foliar treatment, Kochia
Source text: as §4

[14] = tested on: horseweed (Conyza canadensis(L.) Cron.); assay: Example 2 pot test, foliar treatment of horseweed, visual growth inhibition; conditions: 19th day after foliar treatment
Source text: as §3

[15] = tested on: wild oat (Avena fatua L.); assay: Example 4 pot test, foliar treatment, wild oat
Source text: as §1

[16] = tested on: goosegrass (Eleusine indica L.); assay: Example 8 pot test, foliar treatment, goosegrass
Source text: as §2

For `COC(=O)CCNC(=O)C(C)Sc1cc(-n2c(=O)cc(C(F)(F)F)n(C)c2=O)c(F)cc1Cl` (stereo not drawn) [Tiafenacil, tiafenacil], the “Growth inhibition rate (%) Dandelion (10th day)” value ([1]; dose 25 g/ha) was 30%, the “Growth inhibition rate (%) Crabgrass (18th day)” value ([2]; dose 2.5 g/ha) was 30% and the “Growth inhibition rate (%) Yellow nutsedge” value ([3]; dose 50 g/ha) was 35%. The “Growth inhibition rate (%) 19th day” value ([4]; dose 50 g/ha) was 23%, the “Growth inhibition rate (%) 27th day” value ([4]; dose 50 g/ha) was 20% and the “Growth inhibition rate (%) 42nd day” value ([4]; dose 50 g/ha) was 20%. For the same compound, the “Growth inhibition rate (%) 19th day” value ([4]; dose 100 g/ha) was 50%, the “Growth inhibition rate (%) 27th day” value ([4]; dose 100 g/ha) was 43% and the “Growth inhibition rate (%) 42nd day” value ([4]; dose 100 g/ha) was 30%. For the same compound, the “growth inhibition effect (in words)” value [4] was “no sufficient growth inhibition effect”, the “Growth inhibition rate (%)” value ([5]; dose 25 g/ha) was 33% and the “Growth inhibition rate (%)” value ([5]; dose 50 g/ha) was 40%. The “Growth inhibition rate (%) Red root pigweed (8th day)” value ([6]; dose 1 g/ha) was 50%, the “Growth inhibition rate (%) Giant foxtail (7th day)” value ([7]; dose 2.5 g/ha) was 80% and the “Growth inhibition rate (%) Chenopodium album L. var. centrorubrum Makino (14th day)” value ([8]; dose 1 g/ha) was 3%. The “Growth inhibition rate (%) Chenopodium album L. var. centrorubrum Makino (14th day)” value ([8]; dose 2 g/ha) was 30%, the “Growth inhibition rate (%) Black nightshade (27th day)” value ([9]; dose 25 g/ha) was 58% and the “Growth inhibition rate (%) Common Ragweed (6th day)” value ([10]; dose 25 g/ha) was 50%. The “Growth inhibition rate (%) Common Ragweed (6th day)” value ([10]; dose 50 g/ha) was 50%, the “Growth inhibition rate (%) Kochia (10th day)” value ([11]; dose 25 g/ha) was 30% and the “Growth inhibition rate (%) Kochia (10th day)” value ([11]; dose 50 g/ha) was 30%. The “Growth inhibition rate (%) Barnyardgrass (11th day)” value ([12]; dose 2.5 g/ha) was 30%, the “Growth inhibition rate (%) Kochia (14th day)” value ([13]; dose 1 g/ha) was 13% and the “Growth inhibition rate (%) Kochia (14th day)” value ([13]; dose 2 g/ha) was 23%. For the same compound, the “Growth inhibition rate (%)” value ([14]; dose 25 g/ha) was 23%.
With `CCn1ncc(C(=O)c2ccc(S(C)(=O)=O)c(OCCOC)c2C)c1OC(C)OC(=O)OC` (stereo not drawn) [Tolpyralate, tolpyralate] the “Growth inhibition rate (%) Dandelion (10th day)” value ([1]; dose 15 g/ha) was 30%, the “Growth inhibition rate (%) Dandelion (10th day)” value ([1]; dose 30 g/ha) was 30% and the “Growth inhibition rate (%) Dandelion (10th day)” value ([1]; dose 50 g/ha) was 30%. For the same compound, the “Growth inhibition rate (%) Crabgrass (18th day)” value ([2]; dose 1.5 g/ha) was 30%, the “Growth inhibition rate (%) Crabgrass (18th day)” value ([2]; dose 3 g/ha) was 40% and the “Growth inhibition rate (%) Crabgrass (18th day)” value ([2]; dose 5 g/ha) was 50%. The “Growth inhibition rate (%) Yellow nutsedge” value ([3]; dose 15 g/ha) was 40%, the “Growth inhibition rate (%) Yellow nutsedge” value ([3]; dose 30 g/ha) was 50% and the “Growth inhibition rate (%) 19th day” value ([4]; dose 5 g/ha) was 20%. For the same compound, the “Growth inhibition rate (%) 27th day” value ([4]; dose 5 g/ha) was 47%, the “Growth inhibition rate (%) 42nd day” value ([4]; dose 5 g/ha) was 23% and the “Growth inhibition rate (%) 19th day” value ([4]; dose 10 g/ha) was 17%. For the same compound, the “Growth inhibition rate (%) 27th day” value ([4]; dose 10 g/ha) was 37%, the “Growth inhibition rate (%) 42nd day” value ([4]; dose 10 g/ha) was 47% and the “growth inhibition effect (in words)” value [4] was “no sufficient growth inhibition effect”. For the same compound, the “Growth inhibition rate (%)” value ([5]; dose 15 g/ha) was 33%, the “Growth inhibition rate (%)” value ([5]; dose 30 g/ha) was 30% and the “Growth inhibition rate (%)” value ([5]; dose 50 g/ha) was 30%. For the same compound, the “Growth inhibition rate (%) Red root pigweed (8th day)” value ([6]; dose 1.5 g/ha) was 23%, the “Growth inhibition rate (%) Red root pigweed (8th day)” value ([6]; dose 3 g/ha) was 25% and the “Growth inhibition rate (%) Red root pigweed (8th day)” value ([6]; dose 5 g/ha) was 30%. For the same compound, the “Growth inhibition rate (%) Giant foxtail (7th day)” value ([7]; dose 1.5 g/ha) was 10%, the “Growth inhibition rate (%) Giant foxtail (7th day)” value ([7]; dose 3 g/ha) was 30% and the “Growth inhibition rate (%) Giant foxtail (7th day)” value ([7]; dose 5 g/ha) was 40%. For the same compound, the “Growth inhibition rate (%) Wild oat (21st day)” value ([15]; dose 15 g/ha) was 10%, the “Growth inhibition rate (%) Wild oat (21st day)” value ([15]; dose 30 g/ha) was 28% and the “Growth inhibition rate (%) Wild oat (21st day)” value ([15]; dose 50 g/ha) was 30%. For the same compound, the “Growth inhibition rate (%) Chenopodium album L. var. centrorubrum Makino (14th day)” value ([8]; dose 1.5 g/ha) was 10%, the “Growth inhibition rate (%) Chenopodium album L. var. centrorubrum Makino (14th day)” value ([8]; dose 3 g/ha) was 10% and the “Growth inhibition rate (%) Chenopodium album L. var. centrorubrum Makino (14th day)” value ([8]; dose 5 g/ha) was 15%. For the same compound, the “Growth inhibition rate (%) Black nightshade (27th day)” value ([9]; dose 15 g/ha) was 72%, the “Growth inhibition rate (%) Black nightshade (27th day)” value ([9]; dose 30 g/ha) was 79% and the “Growth inhibition rate (%) Black nightshade (27th day)” value ([9]; dose 50 g/ha) was 78%. For the same compound, the “Growth inhibition rate (%) Common Ragweed (6th day)” value ([10]; dose 15 g/ha) was 15%, the “Growth inhibition rate (%) Common Ragweed (6th day)” value ([10]; dose 30 g/ha) was 15% and the “Growth inhibition rate (%) Common Ragweed (6th day)” value ([10]; dose 50 g/ha) was 10%. For the same compound, the “Growth inhibition rate (%) Goosegrass (5th day)” value ([16]; dose 1.5 g/ha) was 15%, the “Growth inhibition rate (%) Goosegrass (5th day)” value ([16]; dose 3 g/ha) was 15% and the “Growth inhibition rate (%) Goosegrass (5th day)” value ([16]; dose 5 g/ha) was 23%. The “Growth inhibition rate (%) Kochia (10th day)” value ([11]; dose 15 g/ha) was 15%, the “Growth inhibition rate (%) Kochia (10th day)” value ([11]; dose 30 g/ha) was 20% and the “Growth inhibition rate (%) Kochia (10th day)” value ([11]; dose 50 g/ha) was 15%. The “Growth inhibition rate (%) Barnyardgrass (11th day)” value ([12]; dose 1.5 g/ha) was 45%, the “Growth inhibition rate (%) Barnyardgrass (11th day)” value ([12]; dose 3 g/ha) was 45% and the “Growth inhibition rate (%) Barnyardgrass (11th day)” value ([12]; dose 5 g/ha) was 40%. For the same compound, the “Growth inhibition rate (%) Kochia (14th day)” value ([13]; dose 1.5 g/ha) was 10%, the “Growth inhibition rate (%) Kochia (14th day)” value ([13]; dose 3 g/ha) was 23% and the “Growth inhibition rate (%) Kochia (14th day)” value ([13]; dose 5 g/ha) was 25%. The “Growth inhibition rate (%)” value ([14]; dose 125 g/ha) was 33% and the “Growth inhibition rate (%)” value ([14]; dose 250 g/ha) was 37%.
